Measured values: the NIST ThermoML archive (doi:10.1016/j.jct.2018.12.006)

Assay: molar heat capacity at constant pressure
Conditions: Crystal, Small (less than 1 g) adiabatic calorimetry

C[N+](C)(C)C[C@H](O)CC(=O)[O-] [(R)-3-hydroxy-4-(trimethylammonio)butanoate]
Conditions | molar heat capacity at constant pressure [J/K/mol]
134.7 K, 100 kPa | 117.9
138.2 K, 100 kPa | 120.5
140 K, 101.33 kPa | 121.6
141.66 K, 100 kPa | 122.9
145.14 K, 100 kPa | 125.4
148.61 K, 100 kPa | 127.8
150 K, 101.33 kPa | 128.6
152.07 K, 100 kPa | 130.3
155.53 K, 100 kPa | 132.7
158.97 K, 100 kPa | 135
160 K, 101.33 kPa | 135.8
162.41 K, 100 kPa | 137.4
165.85 K, 100 kPa | 139.7
169.27 K, 100 kPa | 142.1
170 K, 101.33 kPa | 142.8
172.68 K, 100 kPa | 144.4
176.08 K, 100 kPa | 146.7
179.48 K, 100 kPa | 149
180 K, 101.33 kPa | 149.2
182.87 K, 100 kPa | 151.1
186.24 K, 100 kPa | 153.1
189.61 K, 100 kPa | 154.7
190 K, 101.33 kPa | 154.7
192.97 K, 100 kPa | 156.2
196.22 K, 100 kPa | 157.8
199.57 K, 100 kPa | 159.7
200 K, 101.33 kPa | 160.1
202.89 K, 100 kPa | 161.9
203.31 K, 100 kPa | 162.1
206.21 K, 100 kPa | 163.8
206.83 K, 100 kPa | 163.9
209.52 K, 100 kPa | 165.7
210 K, 101.33 kPa | 166
210.24 K, 100 kPa | 166.4
212.83 K, 100 kPa | 167.6
213.66 K, 100 kPa | 168.2
216.13 K, 100 kPa | 169.6
219.43 K, 100 kPa | 171.7
220 K, 101.33 kPa | 172.2
222.71 K, 100 kPa | 173.9
225.97 K, 100 kPa | 176
229.25 K, 100 kPa | 178.3
230 K, 101.33 kPa | 178.6
232.54 K, 100 kPa | 180.4
235.81 K, 100 kPa | 182.5
239.07 K, 100 kPa | 184.6
240 K, 101.33 kPa | 185.1
242.32 K, 100 kPa | 186.7
245.56 K, 100 kPa | 188.8
248.62 K, 100 kPa | 190.6
250 K, 101.33 kPa | 191.6
251.85 K, 100 kPa | 192.6
255.07 K, 100 kPa | 194.8
257.5 K, 100 kPa | 196.2
260 K, 101.33 kPa | 198.2
260.89 K, 100 kPa | 199.2
264.26 K, 100 kPa | 200.6
267.64 K, 100 kPa | 203.5
270 K, 101.33 kPa | 205
271 K, 100 kPa | 205.7
273.15 K, 101.33 kPa | 207.2
274.35 K, 100 kPa | 208.2
277.7 K, 100 kPa | 210.3
280 K, 101.33 kPa | 211.9
281.03 K, 100 kPa | 212.6
284.35 K, 100 kPa | 214.7
287.63 K, 100 kPa | 217.8
290 K, 101.33 kPa | 218.9
290.92 K, 100 kPa | 219.8
294.21 K, 100 kPa | 221
297.46 K, 100 kPa | 224.2
298.15 K, 101.33 kPa | 224.7
300 K, 101.33 kPa | 226
300.21 K, 100 kPa | 225.9
302.94 K, 100 kPa | 227.7
306.14 K, 100 kPa | 230.3
309.33 K, 100 kPa | 232.6
310 K, 101.33 kPa | 233.1
312.5 K, 100 kPa | 234.8
315.65 K, 100 kPa | 237.1
318.79 K, 100 kPa | 239.5
320 K, 101.33 kPa | 240.1
321.91 K, 100 kPa | 241.3
325.01 K, 100 kPa | 243.5
328.09 K, 100 kPa | 245.8
330 K, 101.33 kPa | 247.2
331.16 K, 100 kPa | 248.1
334.21 K, 100 kPa | 250.7
337.21 K, 100 kPa | 251.9
340 K, 101.33 kPa | 254.2
340.22 K, 100 kPa | 254.1
343.21 K, 100 kPa | 256.3
346.17 K, 100 kPa | 258.6
350 K, 101.33 kPa | 261
